Several values for one entry are separate records, joined by “and”; a condition that tells them apart may be missing. Identical values can stand only once. Inconclusive results and toxic doses are left out.

The test system of this test is P388 leukemia ip, CD2F1 mice, survival T/C. Put plainly: NCI In Vivo Anticancer Drug Screen. Data for tumor model P388 Leukemia (intraperitoneal) in CD2F1 (CDF1) mice. Conditions: endpoint: median survival time, higher = longer survival. The gist of the method: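 Mice carrying the transplanted tumor received test compound or vehicle. Survival was recorded in each group, and the value is the treated-group measurement divided by that of the vehicle-treated control group.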

Where [1] appears, read: dose: 60.0 mg/kg/injection, schedule: Q01DX005 (ip), vehicle: saline with Tween-80.
[2] abbreviates: dose: 6.25 mg/kg/injection, schedule: Q01DX009 (ip), vehicle: saline with Tween-80.
[3] abbreviates: dose: 12.5 mg/kg/injection, schedule: Q01DX009 (ip), vehicle: saline with Tween-80.
[4] abbreviates: dose: 25.0 mg/kg/injection, schedule: Q01DX009 (ip), vehicle: saline with Tween-80.
The mark [5] stands for this setting: dose: 50.0 mg/kg/injection, schedule: Q01DX005 (ip), vehicle: Klucel (hydroxypropylcellulose) (HPC).
Where [6] appears, read: dose: 100.0 mg/kg/injection, schedule: Q01DX005 (ip), vehicle: Klucel (hydroxypropylcellulose) (HPC).
The mark [7] stands for this setting: dose: 200.0 mg/kg/injection, schedule: Q01DX005 (ip), vehicle: Klucel (hydroxypropylcellulose) (HPC).

In the case of `[Se]=P(c1ccccc1)(N1CCCCC1)N1CCCCC1`, the T/C is, setting by setting: (dose: 12.5 mg/kg/injection, schedule: Q01DX001 (ip), vehicle: Klucel (hydroxypropylcellulose) (HPC)) 106 % of control; (dose: 25.0 mg/kg/injection, schedule: Q01DX001 (ip), vehicle: Klucel (hydroxypropylcellulose) (HPC)) 101 % of control; (dose: 50.0 mg/kg/injection, schedule: Q01DX001 (ip), vehicle: Klucel (hydroxypropylcellulose) (HPC)) 93 % of control.

Regarding `CCCCCCCC/C=C\CCCCCCCC(=O)OCCN(CCOC(=O)CCCCCCC/C=C\CCCCCCCC)C(=O)c1ccccc1`, the T/C is 116 % of control (dose: 50.0 mg/kg/injection, schedule: Q01DX009 (ip), vehicle: saline with Tween-80); 97 % of control (dose: 100.0 mg/kg/injection, schedule: Q01DX009 (ip), vehicle: saline with Tween-80); 111 % of control (dose: 200.0 mg/kg/injection, schedule: Q01DX009 (ip), vehicle: saline with Tween-80).

Consider `COC1CC(C)C(OC)c2cc(O)cc(c2O)NC(=O)/C(C)=C/C=C\C(C)C(OC(N)=O)/C(C)=C\C(C)C1OC` (centres undefined), for which the T/C reads like this: (dose: 0.63 mg/kg/injection, schedule: Q01DX009 (ip), vehicle: saline + alcohol) 116 % of control; (dose: 1.25 mg/kg/injection, schedule: Q01DX009 (sc), vehicle: saline + alcohol) 99 % of control; (dose: 2.5 mg/kg/injection, schedule: Q01DX009 (sc), vehicle: saline + alcohol) 93 % of control; (dose: 5.0 mg/kg/injection, schedule: Q01DX009 (sc), vehicle: saline + Tween-80 + alcohol) 94 % of control; (dose: 5.0 mg/kg/injection, schedule: Q01DX009 (sc), vehicle: saline + alcohol) 98 % of control; (dose: 10.0 mg/kg/injection, schedule: Q01DX009 (sc), vehicle: saline + alcohol) 90 % of control. Moreover, the T/C is, setting by setting: (dose: 20.0 mg/kg/injection, schedule: Q01DX009 (ip), vehicle: saline + alcohol) 160 % of control; (dose: 20.0 mg/kg/injection, schedule: Q01DX009 (oral), vehicle: saline + Tween-80 + alcohol) 92 % of control; (dose: 40.0 mg/kg/injection, schedule: Q01DX009 (oral), vehicle: saline + Tween-80 + alcohol) 93 % of control; (dose: 80.0 mg/kg/injection, schedule: Q01DX009 (oral), vehicle: saline + Tween-80 + alcohol) 92 % of control; (dose: 160.0 mg/kg/injection, schedule: Q01DX009 (oral), vehicle: saline + Tween-80 + alcohol) 94 % of control; (dose: 240.0 mg/kg/injection, schedule: Q01DX009 (oral), vehicle: saline + Tween-80 + alcohol) 103 % of control.

In the case of `O=S1(=O)CCN(c2ccccc2)CC1`, the T/C is 96 % of control (dose: 50.0 mg/kg/injection, schedule: Q01DX009 (ip), vehicle: saline); 98 % of control (dose: 100.0 mg/kg/injection, schedule: Q01DX009 (ip), vehicle: saline); 95 % of control (dose: 200.0 mg/kg/injection, schedule: Q01DX009 (ip), vehicle: saline).

In the case of `O=C1/C(=C(\Cl)c2ccccc2)Cc2ccccc21`, the T/C (dose: 75.0 mg/kg/injection, schedule: Q01DX001 (ip), vehicle: saline sonified) was 100 % of control; the T/C (dose: 150.0 mg/kg/injection, schedule: Q01DX001 (ip), vehicle: saline sonified) was 95 % of control; the T/C (dose: 300.0 mg/kg/injection, schedule: Q01DX001 (ip), vehicle: saline sonified) was 118 % of control.

In the case of `c1ccc(-c2nnc(-c3ccccc3)nn2)cc1`, the T/C runs as follows: (dose: 50.0 mg/kg/injection, schedule: Q04DX003 (ip), vehicle: saline with Tween-80) 100 % of control; (dose: 100.0 mg/kg/injection, schedule: Q04DX003 (ip), vehicle: saline with Tween-80) 100 % of control; (dose: 200.0 mg/kg/injection, schedule: Q04DX003 (ip), vehicle: saline with Tween-80) 97 % of control; (dose: 400.0 mg/kg/injection, schedule: Q04DX003 (ip), vehicle: saline with Tween-80) 93 % of control.

Take `COc1ccc2sc3cc(Cl)ccc3c(=O)c2c1`: the T/C is, setting by setting: (dose: 1.87 mg/kg/injection, schedule: Q01DX005 (ip), vehicle: saline with Tween-80) 89 % of control; (dose: 3.75 mg/kg/injection, schedule: Q01DX005 (ip), vehicle: saline with Tween-80) 90 % of control; (dose: 15.0 mg/kg/injection, schedule: Q01DX005 (ip), vehicle: saline with Tween-80) 89 % of control and 90 % of control; under setting [1], 88 % of control.

With `COc1cccc2c1C(=O)c1c(O)c3c(c(O)c1C2=O)CC(O)(C(=O)C(C)C)CC3OC1CC(N)C(O)C(C)O1` (centres undefined), the T/C (dose: 3.13 mg/kg/injection, schedule: Q01DX009 (ip), vehicle: water) is 117 % of control; the T/C (dose: 4.7 mg/kg/injection, schedule: Q04DX003 (ip), vehicle: water) was 115 % of control; the T/C (dose: 6.25 mg/kg/injection, schedule: Q01DX009 (ip), vehicle: water) was 117 % of control; the T/C (dose: 9.4 mg/kg/injection, schedule: Q04DX003 (ip), vehicle: water) was 110 % of control; the T/C (dose: 18.8 mg/kg/injection, schedule: Q04DX003 (ip), vehicle: water) was 101 % of control; the T/C (dose: 75.0 mg/kg/injection, schedule: Q04DX003 (ip), vehicle: water) was 92 % of control.

In the case of `[N-]=[N+]=NCC(=O)N1c2ccccc2Sc2ccccc21`, the T/C is 108 % of control (dose: 25.0 mg/kg/injection, schedule: Q01DX009 (ip), vehicle: other); 103 % of control (dose: 50.0 mg/kg/injection, schedule: Q01DX009 (ip), vehicle: other); 95 % of control (dose: 100.0 mg/kg/injection, schedule: Q01DX009 (ip), vehicle: other); 108 % of control (dose: 200.0 mg/kg/injection, schedule: Q01DX009 (ip), vehicle: other).

For `CCOC(=O)C(C[N+](=O)[O-])(NC(=O)c1ccccc1)C(=O)OCC`, the T/C (dose: 60.0 mg/kg/injection, schedule: Q01DX005 (ip), vehicle: saline) was 104 % of control; the T/C (dose: 120.0 mg/kg/injection, schedule: Q01DX005 (ip), vehicle: saline) was 105 % of control; the T/C (dose: 240.0 mg/kg/injection, schedule: Q01DX005 (ip), vehicle: saline) was 99 % of control.

Take `CCN(CC)CCCC(C)Nc1ccnc2cc(N(C)C)ccc12` (centres undefined): the T/C under setting [2] was 93 % of control, the T/C under setting [3] is 109 % of control and the T/C under setting [4] is 111 % of control.

As for `Cc1cc(C)cc(C(=O)NC(c2ccncc2)C2N=C(c3ccccc3)OC2=O)c1` (centres undefined), the T/C runs as follows: under setting [1], 98 % of control; (dose: 120.0 mg/kg/injection, schedule: Q01DX005 (ip), vehicle: saline with Tween-80) 94 % of control; (dose: 240.0 mg/kg/injection, schedule: Q01DX005 (ip), vehicle: saline with Tween-80) 94 % of control.

On to `O=C1OCCN1/N=C/C=N/N1CCOC1=O`, for which the T/C by setting is: (dose: 1.56 mg/kg/injection, schedule: Q01DX009 (ip), vehicle: saline with Tween-80) 95 % of control; (dose: 3.12 mg/kg/injection, schedule: Q01DX009 (ip), vehicle: saline with Tween-80) 95 % of control; under setting [2], 105 % of control.

As to `c1ccc(-c2[nH]nc3nccnc23)cc1`, the T/C is, setting by setting: under setting [5], 99 % of control; under setting [6], 98 % of control; under setting [7], 98 % of control.

For `NC(Cc1c[nH]c(=O)[nH]c1=O)C(=O)O` (centres undefined), the T/C under setting [5] is 96 % of control, the T/C under setting [6] was 100 % of control and the T/C under setting [7] was 88 % of control.

With `O=S(=O)(C(Br)CBr)C(Br)CBr` (centres undefined), the T/C reads like this: under setting [2], 113 % of control; under setting [3], 118 % of control; under setting [4], 122 % of control.

For `CCCOc1cc2c(cc1C(C)(C)c1ccc(OC)cc1)OCO2`, the T/C (dose: 50.0 mg/kg/injection, schedule: Q01DX005 (ip), vehicle: saline + Tween-80 + alcohol) is 102 % of control; the T/C (dose: 100.0 mg/kg/injection, schedule: Q01DX005 (ip), vehicle: saline + Tween-80 + alcohol) was 111 % of control; the T/C (dose: 200.0 mg/kg/injection, schedule: Q01DX005 (ip), vehicle: saline + Tween-80 + alcohol) was 95 % of control.

In the case of `CCC12CCC(=O)C=C1CCCC2=O` (centres undefined), the T/C (dose: 25.0 mg/kg/injection, schedule: Q01DX009 (ip), vehicle: saline sonified) is 104 % of control; the T/C (dose: 50.0 mg/kg/injection, schedule: Q01DX009 (ip), vehicle: saline sonified) was 86 % of control; the T/C (dose: 100.0 mg/kg/injection, schedule: Q01DX009 (ip), vehicle: saline sonified) is 109 % of control.

The values are drawn from PubChem BioAssay AID330 (DTP/NCI, 2004).
